Where two headings read alike, the source gives them in different places.
Tests used:
[1] = target: HIV-1 protease (Human immunodeficiency virus type 1 group M subtype B, UniProt P04585); experiment: biochemical
[2] = system: HIV-1 (strain IIIB); experiment: microbe, parasite or virus in culture; type: cell-based; details: anti-viral potency in MT-4 cells, read-out: IC50
[3] = Human immunodeficiency virus 1, IIIB, MT4, Table 12
[4] = Table 12, HIV-1 protease, read-out: Ki

CNC(=O)OCCCC(C)(C)CN(CC(O)[C@H](Cc1ccccc1)NC(=O)OC1COC2OCCC12)S(=O)(=O)c1ccc2c(c1)OCO2 (stereo partly drawn) [Compound 272, (3R,3aS,6aR)-Hexahydrofuro[2,3-b]furan-3-yl N-((1S,2R)-1-benzyl-3-[2,2-dimethyl-5-(N′-methylcarbamoyloxypentyl)][(3,4-methylenedioxyphenyl)sulfonyl]amino-2-hydroxypropyl)carbamate] gave a Ki [1] of less than 1 nM and an IC50 [2, 3] of no more than 100 nM.

COc1ccc(S(=O)(=O)N(C[C@@H](O)[C@H](Cc2ccccc2)NC(=O)OC2COCOC2)CC(C)(C)CCC(N)=O)cc1 [Compound 273, {(1S,2R)-1-Benzyl-3-[(4-carboxamide-2,2-dimethyl-butyl)-(4-methoxy-benzenesulfonyl)-amino]-2-hydroxy-propyl}-carbamic acid [1,3]dioxan-5-yl ester] showed a Ki [1, 4] of less than 1 nM and an IC50 [2, 3] of 100 to 500 nM.

In the case of COC(=O)CCC(C)(C)CN(C[C@@H](O)[C@H](Cc1ccccc1)NC(=O)OC1COCOC1)S(=O)(=O)c1ccc(OC)cc1 [Compound 274, {(1S,2R)-1-Benzyl-3-[(4-carbomethoxy-2,2-dimethyl-butyl)-(4-methoxy-benzenesulfonyl)-amino]-2-hydroxy-propyl}-carbamic acid[1,3]dioxan-5-yl ester], the Ki [1, 4] is reported as less than 1 nM and the IC50 [2, 3] is reported as 100 to 500 nM.

Molecule COc1ccc(S(=O)(=O)N(CCC(C)=O)C[C@@H](O)[C@H](Cc2ccccc2)NC(=O)O[C@H]2CO[C@H]3OCC[C@H]32)cc1 [Compound 280, {(1S,2R)-3-[(4-methoxybenzenesulfonyl)-(3-butanonyl)-amino]-1-benzyl-2-hydroxy-propyl}-carbamic acid (3R,3aS,6aR)hexahydro-furo[2,3-b]furan-3-yl ester] has a Ki [1, 4] of less than 1 nM and an IC50 [2, 3] of 100 to 500 nM.

In the case of COc1ccc(S(=O)(=O)N(CCC(C)=O)C[C@@H](O)[C@H](Cc2ccccc2)NC(=O)OC2COCOC2)cc1 [Compound 281], the Ki [1, 4] is reported as 1 to 10 nM and the IC50 [2, 3] is reported as 100 to 500 nM.

Molecule “tert-Butyl N-(1S,2R)-1-benzyl-3-(4-cyanobutyl)[(4-methoxyphenyl)sulfonyl]amino-2-hydroxypropyl)carbamate [Compound 4]” has a Ki [1, 4] of 1 to 10 nM and an IC50 ([2]; Table 12) of 100 to 500 nM.

Source: US6617350B2, “Inhibitors of aspartyl protease” (priority 1999, dated 2003)
